Read-outs that look alike come from different tables or passages of the source.
Legend:
[1] = molecular target: T1, LRAT (Bos taurus, UniProt Q9BGL2); experiment: LRAT activity assay with bovine RPE microsomes (esterification of the corresponding primary alcohols); type: biochemical; settings: percentage of the corresponding primary alcohol esterified by LRAT in 1 h at 37° C; 10 μM; RPE microsomes
T1 construct: incubated with RPF microsomes that served as a source of LRAT enzymatic activity; from tissue; host or cells: bovine retinal pigment epithelium (RPE) microsomes
T1 sequence (Q9BGL2 1-230): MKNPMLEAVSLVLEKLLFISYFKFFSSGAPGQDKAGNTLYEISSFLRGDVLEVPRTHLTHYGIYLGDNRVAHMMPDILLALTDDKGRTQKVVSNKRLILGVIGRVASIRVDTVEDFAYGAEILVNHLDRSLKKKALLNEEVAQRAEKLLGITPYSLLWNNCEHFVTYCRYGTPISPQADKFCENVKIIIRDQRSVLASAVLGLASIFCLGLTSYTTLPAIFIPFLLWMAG
Protocol: (§1) Bovine RPE microsomes were isolated from RPE homogenates by differential centrifugation as previously described. The resulting microsomal precipitate was resuspended in 10 mM Bis-Tris propane/HCl buffer, pH 7.4, to achieve a total protein concentration of […]. Then the mixture was placed in a quartz cuvette and irradiated for 6 min at 4° C. with a ChromatoUVE transilluminator (model TM-15; UVP) to eliminate residual retinoids. After irradiation, DTT was added to the RPE microsomal mixture to achieve a final concentration of 5 mM.
Two μl of a synthesized primary alcohol or amine dissolved in DMF (final concentration 10 μM) and 2 μl of 1,2-diheptanoyl-sn-glicerol-3-phosphocholine (water, final concentration 1 mM) were added to 200 μl of 10 mM Bis-Tris propane/HCl buffer, pH 7.4, containing 150 μg of RPE microsomes and 1% (v/w) BSA. The resulting mixture was incubated at 37° C. for 1 h. The reaction was quenched by adding 300 μl of methanol. Most reaction products were extracted with 300 μl of hexanes, except for products from the QEA-C-006 and QEA-G groups which were extracted by adding 300 μl of ethyl acetate and 300 μl of water.
Reaction products were separated and quantified by normal phase HPLC (Agilent Sil 5 μm, 4.6 mm×250 mm) in stepwise gradient of ethyl acetate in hexanes (0-15 min, 10%; 20-30 min, 30%) at a flow rate of 1.4 ml·min^−1.
The properties of retinoid derivatives were examined by two standard enzymatic tests, the […] and retinoid isomerization assays. To identify substrates of LRAT, aldehydes were reduced by sodium borohydrate to their corresponding primary alcohols that then were directly used in the esterification assay (FIG. 2B).
The alcohols were incubated with RPF microsomes that served as a source of LRAT enzymatic activity. Products of the enzymatic reaction as well as the remaining substrates were extracted with organic solvents and analyzed by HPLC. The ratio between a substrate and its esterified form was used to measure enzymatic activity efficiency, based on equivalent UV absorption of the substrate and product at their specific UV maxim wavelengths. Compounds classified as ‘good’ LRAT substrates converted at least 50% of their available alcohol substrates into corresponding esters under these experimental conditions, whereas marginal LRAT substrates were converted at less than 5%. Alcohols with a 5-50% conversion ratio were classified as weak substrates. Among 35 tested compounds, 23 were categorized as good and 9 as weak substrates; 3 compounds were not esterified by LRAT (Table 1 and FIG. 2C). […] Moreover, breaking double bond conjugation along the polyene chain or deletion of a C9 and/or a C13 methyl group also was allowed.

[2] = molecular target: T2, RPE65 (Bos taurus, UniProt Q28175); experiment: Retinoid isomerase activity assay (11-cis-retinol production in RPE microsomes); type: biochemical, Bovine
T2 construct: from tissue; host or cells: bovine retinal pigment epithelium (RPE) microsomes
T2 sequence (Q28175 whole entry): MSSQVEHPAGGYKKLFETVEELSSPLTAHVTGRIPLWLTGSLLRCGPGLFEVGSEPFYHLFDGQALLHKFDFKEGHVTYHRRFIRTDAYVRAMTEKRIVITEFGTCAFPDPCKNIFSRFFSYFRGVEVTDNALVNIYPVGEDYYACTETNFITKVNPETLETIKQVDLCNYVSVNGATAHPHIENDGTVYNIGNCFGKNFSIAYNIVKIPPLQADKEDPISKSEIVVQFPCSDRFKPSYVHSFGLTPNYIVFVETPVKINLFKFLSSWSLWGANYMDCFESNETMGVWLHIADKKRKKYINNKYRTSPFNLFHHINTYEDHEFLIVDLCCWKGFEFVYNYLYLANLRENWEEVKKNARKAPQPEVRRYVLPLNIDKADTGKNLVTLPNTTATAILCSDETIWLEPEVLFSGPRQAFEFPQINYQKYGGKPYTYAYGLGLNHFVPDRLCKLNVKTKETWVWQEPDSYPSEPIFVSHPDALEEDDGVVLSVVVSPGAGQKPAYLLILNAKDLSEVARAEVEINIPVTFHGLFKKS
Protocol: as §1
[…] The resulting mixture was pre incubated at room temperature for 5 min. Then 1 μl of all-trans-retinol (in DMF, final concentration 20 μM) was added. The resulting mixture was incubated at 37° C. for 15 min to 2 h. The reaction was quenched by adding 300 μl of methanol, and products were extracted with 300 μl of hexanes. Production of 11-cis-retinol was quantified by normal phase HPLC with 10% (v/v) ethyl acetate in hexanes as the eluent at a flow rate of 1.4 ml·min^−1. Retinoids were detected by monitoring their absorbance at 325 nm and quantified based on a standard curve representing the relationship between the amount of 11-cis-retinol and the area under the corresponding chromatographic peak.
Primary amines of compounds derived from the aldehydes were subsequently tested for their ability to inhibit the RPE65-dependent retinoid isomerization reaction in dose- and time dependent reactions as exemplified by QEB-B-001 (FIG. 3B). Amines were incubated with RPE microsomes in the presence of all-trans-retinol and the 11-cis-retinoid binding protein, CRALBP.
Progress of the enzymatic reaction was monitored by HPLC separation of retinoids and quantification of 11-cis-retinol with a decrease of 11-cis-retinol production reflecting inhibition of RPE65 by a tested amine. […] This moderate inhibition could be enhanced by shortening the polyene chain length (TEA amines) or diminished by introducing an extra positive charge into the tested compounds (QEA-G amines).

[3] = Analysis of retinoid composition in mouse tissues: amide forms in liver by HPLC; type: in vivo, mice; settings: oral gavage; for Protection by amide in liver: 4-week-old Abca4−/−Rdh8−/− mice, dark 24 h, liver extracts by HPLC; for amidation in vivo (accumulation of amide forms in mouse liver): liver HPLC
Protocol: (§2) Abca4^−/−Rdh8^−/− double knockout mice were generated as previously described. Mice were housed in the animal facility at the School of Medicine, Case Western Reserve University, where they were maintained under either complete darkness or in a 12-h light (˜300 lux) and 12-h dark cycle. All tested primary amines were suspended in 100 μl of soybean oil with less than 10% (v/v) DMSO and were administered by oral gavage with a 22-gauge feeding needle. Experimental manipulations in the dark were done under dim red light transmitted through a Kodak No. 1 safelight filter (transmittance >560 nm). All animal procedures and experiments were approved by the Case Western Reserve University Animal Care Committees and conformed to recommendations of the American Veterinary Medical Association Panel on Euthanasia and the Association of Research for Vision and Ophthalmology.
Two mg of primary amines were administered by oral gavage to 4-week-old Abca4^−/−Rdh8^−/− mice, which then were kept in the dark for 24 h. Then mice were euthanized, and their livers were homogenized in 1 ml of 10 mM sodium phosphate buffer, pH 7.4, containing 50% methanol (v/v). The resulting mixture was extracted with 4 ml of hexanes. Extracts were dried in vacuo, and reconstituted in 300 μl of hexanes. 100 μl of this solution was analyzed by HPLC as described above for the LRAT activity assay.
(§3) For practical reasons, only eight of these leading compounds (QEA-B-001-NH2, B-002-NH2, C-001-NH2, C-003-NH2, C006-NH2, E-002-NH2, TEA-B-002-NH2, and C00-2-NH2) along with retinylamine as a control were selected for further testing in Abca4^−/−Rdh8^−/− mice, an animal model for light-induced retinal degeneration (Table 2). Additionally, two novel amines with moderate inhibition of RPE65 (QEA-A-006-NH2 and QEA-B-003-NI 12) and one with strong inhibition (QEA-A-005-NH2) were added to the first test group for comparison. Mice were gavaged with 1 mg of a test compound and then kept in the dark for 24 h prior to being exposed to bright light (˜10,000 lux) for 1 h. Retinal damage was assessed with OCT that measured the thickness of the outer nuclear layer and by quantification of tissue 11-cis retinal levels. An example is shown for imaging results in FIG. 4A and for 11-cis-retinal quantification in FIG. 4B. Additionally, extracts of livers obtained from treated mice were analyzed by HPLC to estimate the amounts of corresponding amides (FIG. 4C).

[4] = tested on: Abca4^−/−Rdh8^−/− mice; experiment: Light-induced acute retinal degeneration in Abca4−/−Rdh8−/− mice (OCT, 11-cis-retinal, ERG); type: in vivo; settings: 2 mg; dark 24 h, then 10,000 lux 1 h
[5] = tested on: Abca4^−/−Rdh8^−/− mice; experiment: Toxicity in treated Abca4−/−Rdh8−/− mice (Table 2); type: in vivo; settings: 4-week-old Abca4−/−Rdh8−/− mice, oral gavage
Protocol: as §2, §3

[6] = primary amine, decline in 11-cis-retinol production in RPE microsomes, read-out: Inhibition of RPE65

In the case of `CC1=C(/C=C/C=C/C=C/C=C/CN)C(C)(C)CCC1` [QEA-A-005-NH2], the “LRAT Substrate” value [1] is reported as 100%, the IC50 [2, 6] is reported as under 10 µM and the IC50 ([2]; read-out: inhibition of RPE65) is reported as under 10 µM. The “Protection by amide in liver” value [3] was “Strong”, the “protection of ONL (averaged ONL thickness by OCT)” value [4] was “protected” and the Toxicity [5] was “None”.

In the case of `COc1ccc(C(=C\C=C\C(C)=C\CN)/C=C/c2ccc(O)cc2)cc1` [QEA-C-006-NH2], the “LRAT Substrate” value [1] is reported as 50%, the “inhibition of RPE65” value [2] is reported as “did not inhibit” and the IC50 [2, 6] is reported as over 200 µM. For the same compound, the “Protection by amide in liver” value [3] was “None”, the “amidation in vivo (accumulation of amide forms in mouse liver)” value (shortened to “amidation in vivo”) [3] was “not efficiently amidated” and the Toxicity [5] was “None”.

With `COc1ccc(C(=C\C=C\C(C)=C\CN)/C=C/C2=CCCCC2)cc1` [QEA-E-002-NH2] the “LRAT Substrate” value [1] was 100%, the “inhibition of RPE65” value [2] was “did not inhibit” and the IC50 [2, 6] was over 200 µM. The “Protection by amide in liver” value [3] was “Weak”, the “amidation in vivo” value [3] was “not efficiently amidated” and the Toxicity [5] was “None”.

In the case of `CC(C)(C)C(=C\C=C\CN)/C=C/C1=CCCCC1` [TEA-B-002-NH2], the “LRAT Substrate” value [1] is reported as 10%, the “inhibition of RPE65” value [2] is reported as “did not inhibit” and the IC50 [2, 6] is reported as over 200 µM. For the same compound, the “Protection by amide in liver” value [3] was “None”, the “amidation in vivo” value [3] was “not efficiently amidated” and the Toxicity [5] was “Yes”.

With `CC(/C=C/C=C(/c1ccc2ccccc2c1)C(C)(C)C)=C\CN` [TEA-C-002-NH2] the “LRAT Substrate” value [1] was 20%, the “inhibition of RPE65” value [2] was “did not inhibit” and the IC50 [2, 6] was over 200 µM. For the same compound, the “Protection by amide in liver” value [3] was “Strong”, the “amidation in vivo” value [3] was “efficiently converted into amides” and the Toxicity [5] was “Yes”.
